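Assay format: 96-well plates, 48-hour exposure. GI50 marks 50% less growth.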 Activity calls are given as the source filed them. Cut-off read from the data, not from the text of the source: active = GI50 up to about 1.1 µM and inactive = higher.
Experiments:
Experiment in all cases: inhibition of tumour cell growth, NCI panel, 48 h
786-0 = tested on: 786-0
A498 = tested on: A498
BT-549 = tested on: BT-549
DU-145 = tested on: DU-145
HOP-62 = tested on: HOP-62
HT-29 = tested on: HT-29
KM-20L2 = tested on: KM-20L2
NCI-H460 = tested on: NCI-H460
NCI-H522 = tested on: NCI-H522
NCI/ADR-RES = tested on: NCI/ADR-RES
PC-3 = tested on: PC-3
SF-268 = tested on: SF-268
SR = tested on: SR
T47D = tested on: T47D
U-251 = tested on: U-251
MDA-MB-435 = tested on: MDA-MB-435
DMS-273 = tested on: DMS-273
M19-MEL = tested on: M19-MEL
HOP-18 = tested on: HOP-18

| Structure (SMILES) | GI50 (786-0) | GI50 (A498) | GI50 (BT-549) | GI50 (DU-145) | GI50 (HOP-62) | GI50 (HT-29) | GI50 (KM-20L2) | GI50 (NCI-H460) | GI50 (NCI-H522) | GI50 (NCI/ADR-RES) | GI50 (PC-3) | GI50 (SF-268) | GI50 (SR) | GI50 (T47D) | GI50 (U-251) | GI50 (MDA-MB-435) | GI50 (DMS-273) | GI50 (M19-MEL) | GI50 (HOP-18) |
| --- | --- | --- | --- | --- | --- | --- | --- | --- | --- | --- | --- | --- | --- | --- | --- | --- | --- | --- | --- |
| CC1=NN(C(=O)c2ccccc2O)C(=O)/C1=C/c1ccc(O)cc1 | 0.323 µM (active) | 0.134 µM (active) | 0.279 µM (active) | 0.492 µM (active) | 0.662 µM (active) | 26.9 µM (inactive) | 36.5 µM (inactive) | 0.255 µM (active) | 0.807 µM (active) | 0.519 µM (active) | 0.368 µM (active) | 0.265 µM (active) | 0.485 µM (active) | 4.03 µM (inactive) | 0.205 µM (active) |  |  |  |  |
| C/C(=N\NC(=O)c1ccncc1)c1sc(-n2nc(-c3ccccc3)cc2-c2ccccc2)nc1C | > 31.6 µM (inactive) | > 100 µM (inactive) | > 31.6 µM (inactive) | > 31.6 µM (inactive) | > 31.6 µM (inactive) | > 100 µM (inactive) |  | > 31.6 µM (inactive) | > 35.7 µM (inactive) | > 100 µM (inactive) | > 31.6 µM (inactive) | > 100 µM (inactive) | 25.5 µM (inactive) | 18.5 µM (inactive) | > 31.6 µM (inactive) | > 31.6 µM (inactive) |  |  |  |
| COC(=O)c1s/c(=N\C(=S)N(C)C)n(-c2ccccc2)c1C(=O)OC | > 100 µM (inactive) | > 100 µM (inactive) |  |  | > 100 µM (inactive) | 57 µM (inactive) | > 100 µM (inactive) | > 100 µM (inactive) | > 100 µM (inactive) |  |  | > 100 µM (inactive) |  |  | > 100 µM (inactive) |  | > 100 µM (inactive) | > 100 µM (inactive) |  |
| Cn1c2ccccc2c2ccc3c(c21)C(=O)C(c1ccccc1)=CC3=O | 17.1 µM (inactive) |  |  |  | 13.4 µM (inactive) | 45.4 µM (inactive) |  | 9.27 µM (inactive) | 19.2 µM (inactive) |  |  | 36 µM (inactive) |  |  | 36.8 µM (inactive) |  | 21.5 µM (inactive) | 24 µM (inactive) | 0.0957 µM (active) |
| CCCCCCCCCCCCCCCCP(=O)([O-])OCC[N+](C)(C)C | 7.46 µM (inactive) | 14.5 µM (inactive) | 9.53 µM (inactive) | 14.7 µM (inactive) | 15.2 µM (inactive) | 12.7 µM (inactive) |  | 5.75 µM (inactive) | 22.6 µM (inactive) | 18.7 µM (inactive) | 1.71 µM (inactive) | 17.6 µM (inactive) | 10.4 µM (inactive) | 17.6 µM (inactive) | 16.7 µM (inactive) | 17.3 µM (inactive) |  |  |  |
| CCN(CC)CCNC(=O)c1cc2cc(NC(=O)c3cc4cc(NC(=O)c5cc6cc(N)ccc6[nH]5)ccc4[nH]3)ccc2[nH]1 | > 100 µM (inactive) | > 100 µM (inactive) | > 100 µM (inactive) | > 100 µM (inactive) | > 100 µM (inactive) | > 100 µM (inactive) |  | > 100 µM (inactive) | > 100 µM (inactive) | > 100 µM (inactive) | > 100 µM (inactive) | > 100 µM (inactive) | > 100 µM (inactive) | > 100 µM (inactive) | > 100 µM (inactive) | > 100 µM (inactive) |  |  |  |
| c1ccc(N/N=C2\NN=C(c3ccccc3)CS2)cc1 | 15.7 µM (inactive) | 10.8 µM (inactive) |  |  | 22.3 µM (inactive) | 6.89 µM (inactive) | 6.46 µM (inactive) | 14 µM (inactive) | 3.49 µM (inactive) |  |  | 5.18 µM (inactive) | 4.3 µM (inactive) |  | > 10 µM (inactive) |  |  |  |  |
| COc1cc(/C=C/C(=O)CC(=O)/C=C/c2ccc(O)c(OC)c2)ccc1O [CURCUMIN] | 3.33 µM (inactive) | 16 µM (inactive) | 4.97 µM (inactive) | 15.7 µM (inactive) | 3.63 µM (inactive) | 5.09 µM (inactive) |  | 8.07 µM (inactive) | 5.33 µM (inactive) | 7.26 µM (inactive) | 8.79 µM (inactive) | 7.06 µM (inactive) | 3.28 µM (inactive) | 8.36 µM (inactive) | 4.72 µM (inactive) | 2.98 µM (inactive) |  |  |  |

— ChEMBL document CHEMBL1201862, “PubChem BioAssay data set” (2004)
